Consider 21 compounds from patent US20110319379A1, “Substituted Indazole Amides And Their Use As Glucokinase Activators” (priority 2009, published 2011).

The target in one test is T1, recombinant human glucokinase (Homo sapiens, UniProt P35557).
T1 construct: Full-length glucokinase (beta cell isoform) was His-tagged at the N-terminus and purified by a Ni column followed by size exclusion chromatography as described above; His tag; made in house; host or cells: E. coli BL21(DE3), vector pBCGK
T1 sequence (P35557 1-465): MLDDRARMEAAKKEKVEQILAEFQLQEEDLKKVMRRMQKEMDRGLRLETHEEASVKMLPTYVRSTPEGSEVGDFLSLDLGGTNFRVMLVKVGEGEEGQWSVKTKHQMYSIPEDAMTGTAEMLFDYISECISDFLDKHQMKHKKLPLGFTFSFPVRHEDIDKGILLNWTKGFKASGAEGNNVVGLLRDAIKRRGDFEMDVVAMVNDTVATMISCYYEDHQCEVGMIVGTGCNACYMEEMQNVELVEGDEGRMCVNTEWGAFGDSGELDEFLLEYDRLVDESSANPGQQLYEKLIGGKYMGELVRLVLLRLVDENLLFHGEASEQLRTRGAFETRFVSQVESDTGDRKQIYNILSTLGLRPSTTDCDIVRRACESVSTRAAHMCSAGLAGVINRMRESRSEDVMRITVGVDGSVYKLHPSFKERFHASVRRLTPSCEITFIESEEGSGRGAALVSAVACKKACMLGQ
Nature of the test: Assay 2: Evaluating Activator Potency in a Matrix Assay at Multiple Glucose Concentrations. To be noted: Assay 2 matrix assay; 16 glucose concentrations; intrinsic EC50 = concentration affording a 50% reduction in the enzyme's Km (for glucose); read-out: Glucokinase EC50. Type of test: biochemical. On the procedure:
Representative compounds of this invention were evaluated in biochemical assays (Assay 1 or Assay 2) to characterize their glucokinase activation properties.
The recombinant human glucokinase protein utilized in both assays was prepared and purified as described below.
BL21(DE3) cells (Invitrogen Corporation, Carlsbad, Calif.) containing pBCGK (C or N H is) vector were grown at 37° C. (in 2XYT) until the OD600 was between 0.6-1.0. Expression was induced by addition of isopropylthiogalactoside to a final concentration of 0.1-0.2 mM to the cells which were then incubated overnight at 23° C. The next day, cells were harvested via centrifugation at 5000 rpm for 15 minutes at 4° C. The cell pellet was stored at −80° C. for future purification.
Beta Cell Glucokinase His-Taq Purification Conditions: A Ni-NTA (Quigan, Germantown, Md.) column (15-50 mL) was used for separation. Two buffers were prepared, 1) a lysis/nickel equilibration and wash buffer and 2) a nickel elution buffer. The lysis/equilibration/wash buffer was prepared as such: 25 mM HEPES buffer at pH 7.5, 250 mM NaCl, 20 mM imidazole, and 14 mM β-mercaptoethanol as final concentrations. The elution buffer was prepared as such: 25 mM HEPES at pH 7.5, 250 mM NaCl, 400 mM imidazole, and 14 mM β-mercaptoethanol as final concentrations. The buffers were each filtered with a 0.22 μm filter prior to use. The cell pellet (1 L culture) was resuspended in 300 mL of the lysis/equilibration buffer. The cells were then lysed (3 times) with a Microfluidics Model 110Y microfluidizer (Microfluidics Corporation, Newton, Mass.). The slurry was centrifuged with a Beckman Coulter Model LE-80K ultracentrifuge (Beckman Coulter, Fullerton, Calif.) at 40,000 rpm for 45 minutes at 4° C. The supernatant was transferred to a chilled flask. A volume of 20 μl was saved for gel analysis. A Pharmacia AKTA (GMI, Inc., Ramsey, Minn.) purification system was used for separation. The prime lines were purged with lysis/equilibration buffer. The Ni-NTA column was equilibrated with 200 mL of the lysis/equilibration buffer at a flow rate of 5 mL/minute. The supernantant was loaded over the column at 4 mL/minute and the flow-through was collected in a flask. The unbound proteins were washed with lysis/equilibration buffer at a flow rate of 5 mL/minute until the ultraviolet reaches baseline. The protein was then eluted from the column with the imidazole elution buffer via imidazole gradient 20 mM to 400 mM over 320 mL. The column was then stripped of any additional protein with 80 mL of the elution buffer. The elution fractions were each 8 mL, for a total yield of 50 samples. Fractions were analyzed by sodium dodecyl sulfate polyacrylamide (SDS-PAGE) and the fractions containing protein of interest were pooled and concentrated to 10 mL using ultrafiltration cell with a 10,000 molecular weight cut-off (MWCO) Millipore membrane (Sigma-Aldrich, St. Louis, Mo.) under nitrogen gas (60 psi). Protein was further purified by size exclusion chromatography (SEC) using a […] (320 mL) (Amersham Pharmacia, Uppsala, Sweden). SEC was equilibrated with 450 mL sizing buffer containing 25 mM HEPES pH 7.0, 50 mM NaCl, and 5 mM dithiothreitol. Concentrated protein was then loaded over SEC and elution with 400 mL sizing buffer was performed overnight at 0.5 mL/minute. The elution fractions were 5 mL each. The fractions were analyzed by SDS-PAGE and protein containing fractions were pooled. Concentration was measured using Bradford Assay/BSA Standard. Purified protein was stored in small aliquots at −80° C.
Assay 2: Evaluating Activator Potency in a Matrix Assay at Multiple Glucose Concentrations
Utilizing an adaptation of this method, representative compounds of the current invention were evaluated at 22 different concentrations and 16 different glucose concentrations in a coupled enzyme assay system that detects glucokinase activity via depletion of β-NADH.
`CCn1cc2c(Oc3ccc(S(C)(=N)=O)cc3)cc(C(=O)Nc3ccc(C)cn3)cc2n1` (single isomer, unassigned) [Example 1CW, 2-ethyl-N-(5-methylpyridin-2-yl)-4-[4-(S-methylsulfonimidoyl)phenoxy]-2H-indazole-6-carboxamide]: the EC50 (as a rule, the concentration needed to bring the measured effect to its halfway point) was 555 nM. In the case of `CCn1cc2c(Oc3ccc(S(C)(=N)=O)cc3)cc(C(=O)Nc3ccc(C)cn3)cc2n1` (single isomer, unassigned) [Example 1CX, 2-ethyl-N-(5-methylpyridin-2-yl)-4-[4-(S-methylsulfonimidoyl)phenoxy]-2H-indazole-6-carboxamide], the EC50 was determined as 1370 nM.

As for `CCn1cc2c(Oc3cnc(C(=O)N(C)C)cn3)cc(C(=O)Nc3cnc(OC)cn3)cc2n1` [Example 1AF, 4-(5-(dimethylcarbamoyl)pyrazin-2-yloxy)-2-ethyl-N-(5-methoxypyrazin-2-yl)-2H-indazole-6-carboxamide], the EC50 turned out to be 532 nM. Still for that read-out and setting: under `Cc1cnc(NC(=O)c2cc(Oc3ccc(C(=O)N(C)C)cc3)c3cn(C)nc3c2)cn1` [Example 1AG, 4-(4-(dimethylcarbamoyl)phenoxy)-2-methyl-N-(5-methylpyrazin-2-yl)-2H-indazole-6-carboxamide] stands 713 nM; under `Cn1cc2c(Oc3cnc(C(=O)N4CCC4)cn3)cc(C(=O)Nc3cnn(C)n3)cc2n1` [Example 1AH, 4-(5-(azetidine-1-carbonyl)pyrazin-2-yloxy)-2-methyl-N-(2-methyl-2H-1,2,3-triazol-4-yl)-2H-indazole-6-carboxamide], 36000 nM. Take `CN(C)S(=O)(=O)c1ccc(Oc2cc(C(=O)Nc3cnn(C)n3)cc3nn(C)cc23)cc1` [Example 1AJ, 4-{4-[(dimethylamino)sulfonyl]phenoxy}-2-methyl-N-(2-methyl-2H-1,2,3-triazol-4-yl)-2H-indazole-6-carboxamide]: the EC50 was 703 nM. For `CNS(=O)(=O)c1ccc(Oc2cc(C(=O)Nc3cnc(C)cn3)cc3nn(C)cc23)cc1` [Example 1AK, 4-{4-[(methylamino)sulfonyl]phenoxy}-2-methyl-N-(5-methylpyrazin-2-yl)-2H-indazole-6-carboxamide], the EC50 was 878 nM.

Turning to `Cc1cnc(NC(=O)c2cc(Oc3ccc(S(=O)(=O)N(C)C)nc3)c3cn(C)nc3c2)cn1` [Example 1AL, 4-({6-[(dimethylamino)sulfonyl]pyridin-3-yl}oxy)-2-methyl-N-(5-methylpyrazin-2-yl)-2H-indazole-6-carboxamide], the 50% effective concentration (EC50) was found to be 3170 nM.

As for `CN(C)S(=O)(=O)c1ccc(Oc2cc(C(=O)Nc3ccn(C)n3)cc3nn(C)cc23)cn1` [Example 1AM, 4-({6-[(dimethylamino)sulfonyl]pyridin-3-yl}oxy)-2-methyl-N-(1-methyl-1H-pyrazol-3-yl)-2H-indazole-6-carboxamide], the EC50 stood at 3880 nM. Consider `CCn1cc2c(Oc3cnc(N(C)S(C)(=O)=O)cn3)cc(C(=O)Nc3ccc(C)cn3)cc2n1` [Example 1AN, 2-ethyl-4-({5-[methyl(methylsulfonyl)amino]pyrazin-2-yl}oxy)-N-(5-methylpyridin-2-yl)-2H-indazole-6-carboxamide], for which the concentration giving a half-maximal response (EC50) turned out to be 532 nM. On to `Cn1ccc(NC(=O)c2cc(Oc3ccc(S(C)(=O)=O)nc3)c3cn(C)nc3c2)n1` [Example 1AO, 2-methyl-N-(1-methyl-1H-pyrazol-3-yl)-4-{[6-(methylsulfonyl)pyridin-3-yl]oxy}-2H-indazole-6-carboxamide], for which the EC50 was determined as 1290 nM. Regarding `Cc1ccc(NC(=O)c2cc(Oc3ccc(S(C)(=O)=O)nc3)c3cn(C)nc3c2)nc1` [Example 1AP, 2-methyl-N-(5-methylpyridin-2-yl)-4-{[6-(methylsulfonyl)pyridin-3-yl]oxy}-2H-indazole-6-carboxamide], the EC50 was found to be 1430 nM.

For the compound `Cc1cnc(NC(=O)c2cc(Oc3ccc(S(C)(=O)=O)nc3)c3cn(C)nc3c2)cn1` [Example 1AQ, 2-methyl-N-(5-methylpyrazin-2-yl)-4-{[6-(methylsulfonyl)pyridin-3-yl]oxy}-2H-indazole-6-carboxamide], the EC50 amounted to 5370 nM.

As for `Cc1ccc(NC(=O)c2cc(Oc3ccc(S(C)(=O)=O)cc3C(F)(F)F)c3cn(C)nc3c2)nc1` [Example 1AR, 2-methyl-N-(5-methylpyridin-2-yl)-4-[4-(methylsulfonyl)-2-(trifluoromethyl)phenoxy]-2H-indazole-6-carboxamide], the concentration for a half-maximal effect (EC50) amounted to 545 nM. Regarding `CCn1cc2c(Oc3cnc(NS(C)(=O)=O)cn3)cc(C(=O)Nc3ccc(C)cn3)cc2n1` [Example 1AT, 2-ethyl-N-(5-methylpyridin-2-yl)-4-({5-[(methylsulfonyl)amino]pyrazin-2-yl}oxy)-2H-indazole-6-carboxamide], the EC50 amounted to 4920 nM. Take `Cn1ccc(NC(=O)c2cc(Oc3ccc(S(N)(=O)=O)cc3)c3cn(C)nc3c2)n1` [Example 1AU, 4-[4-(aminosulfonyl)phenoxy]-2-methyl-N-(1-methyl-1H-pyrazol-3-yl)-2H-indazole-6-carboxamide]: the EC50 was 6220 nM. The same measure, in the same setting: under `Cc1ccc(NC(=O)c2cc(Oc3ccc4c(c3)CCS4(=O)=O)c3cn(C)nc3c2)nc1` [Example 1AV, 4-[(1,1-dioxido-2,3-dihydro-1-benzothien-5-yl)oxy]-2-methyl-N-(5-methylpyridin-2-yl)-2H-indazole-6-carboxamide] stands 817 nM; under `CCn1cc2c(Oc3ccc4c(c3)CCS4(=O)=O)cc(C(=O)Nc3ccc(C)cn3)cc2n1` [Example 1AW, 4-[(1,1-dioxido-2,3-dihydro-1-benzothien-5-yl)oxy]-2-ethyl-N-(5-methylpyridin-2-yl)-2H-indazole-6-carboxamide], 986 nM; under `CCn1cc2c(Oc3ccc(S(C)(=O)=O)cc3)cc(C(=O)Nc3cnc(OC)cn3)cc2n1` [Example 1AX, 2-ethyl-N-(5-methoxypyrazin-2-yl)-4-[4-(methylsulfonyl)phenoxy]-2H-indazole-6-carboxamide], 567 nM.

The same test, now with this note: Glucokinase EC50, Assay 2 matrix assay; 16 glucose concentrations; intrinsic EC50 = concentration affording a 50% reduction in the enzyme's Km (for glucose).
As to `Cc1cnc(NC(=O)c2cc(Oc3ccc(S(=O)(=O)N(C)C)cc3)c3cn(C)nc3c2)cn1` [Example 1AI, 4-{4-[(dimethylamino)sulfonyl]phenoxy}-2-methyl-N-(5-methylpyrazin-2-yl)-2H-indazole-6-carboxamide], the EC50 came to 431 nM. As to `Cc1cnc(NC(=O)c2cc(Oc3ccc(S(N)(=O)=O)cc3)c3cn(C)nc3c2)cn1` [Example 1AS, 4-[4-(aminosulfonyl)phenoxy]-2-methyl-N-(5-methylpyrazin-2-yl)-2H-indazole-6-carboxamide], the EC50 worked out at 2280 nM.
